Reference: PubChem BioAssay (NCI)
Several values for one entry are separate records, joined by “and”; a condition that tells them apart may be missing. Identical values can stand only once.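 Growth conditions: 96-well plates. Treatment: test compound, 48 hours, 5 concentrations. Analysis: linear interpolation between bracketing concentrations; unreached endpoints set to highest concentration. TGI is the concentration that stops growth completely.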

Legend:
Test in all cases: NCI-60 cell line screen, 48 h
ACHN renal = system: ACHN renal
CCRF-CEM leukemia = system: CCRF-CEM leukemia
EKVX NSCLC = system: EKVX NSCLC
IGROV1 ovarian = system: IGROV1 ovarian
LOX IMVI melanoma = system: LOX IMVI melanoma
MALME-3M melanoma = system: MALME-3M melanoma
MOLT-4 leukemia = system: MOLT-4 leukemia
NCI-H23 lung = system: NCI-H23 lung
OVCAR-4 ovarian = system: OVCAR-4 ovarian
OVCAR-5 ovarian = system: OVCAR-5 ovarian
PC-3 prostate = system: PC-3 prostate
SF-268 CNS = system: SF-268 CNS
SF-295 CNS = system: SF-295 CNS
SK-MEL-2 melanoma = system: SK-MEL-2 melanoma
SK-MEL-5 melanoma = system: SK-MEL-5 melanoma
SNB-19 CNS = system: SNB-19 CNS
SR leukemia = system: SR leukemia
T-47D breast = system: T-47D breast
UACC-257 melanoma = system: UACC-257 melanoma
UACC-62 melanoma = system: UACC-62 melanoma

| SMILES | TGI (ACHN renal) [µM] | TGI (CCRF-CEM leukemia) [µM] | TGI (EKVX NSCLC) | TGI (IGROV1 ovarian) | TGI (LOX IMVI melanoma) | TGI (MALME-3M melanoma) | TGI (MOLT-4 leukemia) [µM] | TGI (NCI-H23 lung) [µM] | TGI (OVCAR-4 ovarian) | TGI (OVCAR-5 ovarian) [µM] | TGI (PC-3 prostate) [µM] | TGI (SF-268 CNS) [µM] | TGI (SF-295 CNS) [µM] | TGI (SK-MEL-2 melanoma) | TGI (SK-MEL-5 melanoma) | TGI (SNB-19 CNS) [µM] | TGI (SR leukemia) | TGI (T-47D breast) | TGI (UACC-257 melanoma) [µM] | TGI (UACC-62 melanoma) |
| --- | --- | --- | --- | --- | --- | --- | --- | --- | --- | --- | --- | --- | --- | --- | --- | --- | --- | --- | --- | --- |
| CCCCCCCCCc1cc(-c2ccc(C=O)s2)sc1-c1ccc(C=O)s1 | > 100 | 8.51 | > 100 µM | 56.3 µM | 37 µM | > 100 µM | 10.5 | 82.5 | > 80.4 µM | > 91.6 | > 100 | > 100 | > 100 | 64.4 µM | 34.6 µM | > 87.1 | 26.9 µM | > 85.6 µM | 30.8 | 23.7 µM |
| Nc1nc(Cl)c2ncn(Cc3ccc(CCl)cc3)c2n1 | 25.1 | > 100 | 7.22 µM | 22.9 µM | 43.9 µM | 27.3 µM | > 100 | 30.4 | 30.1 µM | 14.9 | 25 | 8.38 | 27.8 | 29.1 µM | 31 µM | 20 | 9.37 µM | 40.1 µM | 47.9 | 8.18 µM |
| C=CC(c1ccccc1)[C@@]1(OC(C)=O)C(=O)C(=O)OC1C1COC(C)(C)O1 (stereo partly drawn) | 18.6 | > 19.6 | 35.3 µM | 31.9 µM | 16.2 µM | 34.3 µM | 34.6 | 42.9 | 30.5 µM | 33.2 | 24.3 | 71.4 | 31.6 | 33.4 µM | 29.7 µM | 42.7 | 10.2 µM | 41.1 µM | 23.9 | 29 µM |
| CCOP(=O)(CCCC(O)CNc1cc(Cl)nc(N)n1)OCC (stereo not drawn) | > 100 | > 100 | > 100 µM | > 100 µM | > 100 µM | > 100 µM | > 100 | > 100 | > 100 µM | > 100 | > 100 | > 100 | > 100 | > 100 µM | > 100 µM | – | > 100 µM | > 100 µM | > 100 | > 100 µM |
| CC(C)CC1C(=O)NCCC(NC(=O)C(N)Cc2ccc(O)cc2)C(=O)NC(Cc2ccccc2)C(=O)NC(Cc2ccccc2)NC1=O (stereo not drawn) | > 100 | > 100 | > 100 µM | > 100 µM | > 100 µM | > 100 µM | > 100 | > 100 | > 100 µM | > 100 | > 100 | > 100 | > 100 | > 100 µM | > 100 µM | > 100 | > 100 µM | > 100 µM | > 100 | > 100 µM |
| Cc1ccc(C)n1-n1c(Cc2ccccc2)n[nH]c1=O | > 100 | > 100 | > 100 µM | > 100 µM | > 100 µM | > 100 µM | > 100 | – | > 100 µM | > 100 | > 100 | > 100 | > 100 | > 100 µM | > 100 µM | > 100 | > 100 µM | > 100 µM | > 100 | > 100 µM |
| CC(=O)OCC(OC(C)=O)C(OC(C)=O)C(OC(C)=O)C(C=NN(C(C)=O)S(=O)(=O)c1ccc(/C=C2\NC(=O)N(C)C2=O)cc1)OC(C)=O (stereo not drawn) | > 100 | 41.6 | 78.5 µM and > 100 µM | 75.2 µM and > 100 µM | 33 µM and 66 µM | 37.5 µM and 52.1 µM | 45.6 | > 100 | 95.7 µM and > 100 µM | > 100 | > 100 | > 100 | > 100 | 58 µM and > 100 µM | 90.3 µM and 86.2 µM | > 100 | 44.1 µM and 61 µM | 76.1 µM and 91.3 µM | > 100 | 23.3 µM and 29.5 µM |
| Cc1ccc(NC(=O)CSc2nc(C)nc3c2sc(=S)n3-c2ccccc2)cc1 | > 10 | > 10 | > 10 µM | > 10 µM | > 10 µM | > 10 µM | > 10 | > 10 | 6.06 µM | > 10 | > 10 | > 10 | > 10 | > 10 µM | > 10 µM | > 10 | > 10 µM | > 10 µM | > 10 | > 10 µM |
| COc1cc(NC(C)=O)ccc1C(=O)N/N=C/c1ccc(Cl)cc1Cl | > 100 | > 100 | > 100 µM | > 100 µM | > 100 µM | > 100 µM | > 100 | > 100 | 85.5 µM | > 100 | > 100 | > 100 | > 100 | 51.3 µM | > 100 µM | > 100 | > 100 µM | 70.8 µM | 70.9 | > 100 µM |
| CC(C)(C)c1cc(C2NCCO2)cc(C(C)(C)C)c1O (stereo not drawn) | > 100 | > 100 | > 100 µM | > 100 µM | > 100 µM | > 100 µM | > 100 | > 100 | > 100 µM | > 100 | > 100 | > 100 | > 100 | > 100 µM | > 100 µM | – | > 100 µM | 27.6 µM | > 100 | > 100 µM |
| O=C(O)CN1CCN2CCOCCOCCN(CC1)CCN(CC(=O)O)CC2 | > 100 | > 100 | > 100 µM | > 100 µM | > 100 µM | > 100 µM | – | – | > 100 µM | > 100 | > 100 | – | > 100 | > 100 µM | > 100 µM | > 100 | > 100 µM | > 100 µM | > 100 | > 100 µM |
| CCOC(=O)C(/C=N\C(=S)Nc1ccc(Cl)c(Cl)c1)=C(/O)c1ccccc1 | > 100 | > 100 | > 100 µM | > 100 µM | > 100 µM | > 100 µM | > 100 | > 100 | > 100 µM | > 100 | > 100 | > 100 | > 100 | 77.1 µM | > 100 µM | – | > 100 µM | > 100 µM | > 100 | > 100 µM |
